The record followed here is patent US12226386B2, “Compositions and methods for treating biofilms” (The Regents of the University of California, priority 2018, dated 2025).

For test [1], the system named is S. aureus (MRSA) biofilms. Nature of the test: in vitro sustained inhibition biofilm assay, bacterial. The format is cell-based, Staphylococcus aureus. Particulars: for activation at 1 %: Staphylococcus aureus, MRSA, 24 h, read-out: Promote B Biofilm. The method, then: (§1) In vitro biofilm formation was tested using two assays, sustained inhibition and disruption. Both assays assess biofilm formed on polystyrene plates. The first, tests the effects of amino acid solution on a developing biofilm, while the latter tests the effects of the solution on a pre-formed mature biofilm, both compared to media without supplemented amino acids.
(§2) Other amino acids in the blood of animals could combat bacterial and fungal biofilm and therefore may be useful in treating these bacterial and fungal infections that would lie on the external surfaces of infected animals such as humans and could also be used to combat these pathogens on instruments and surfaces that need to be treated. Two types of biofilm assays were performed: a sustained inhibition assay and a disruption assay. The sustained inhibition assay assessed the compound's ability to prevent biofilm development throughout all stages of biofilm formation, while the disruption assay assessed the compound's ability to break up an existing mature biofilm.
(§3) For fungal biofilm assays, all solutions were prepared in RPMI 1640 medium. All bacterial biofilm solutions were prepared in Tryptic Soy Broth (TSB), supplemented with 1% glucose (henceforth referred to as TSB-G). All subsequent procedures were performed in a manner that maintained sterility. A solution of each amino acid to be tested was prepared in weight to volume concentrations ranging from 0.1-5.0%. Amino acids were also tested in combinations. Compound solutions were homogenized with gentle agitation in the dark (4° C., 24 hours) before use.
(§4) Bacterial strains were streaked on Blood Agar plates (5% sheep blood in Tryptic Soy Agar) and incubated at 37° C. for 24 hours. A single colony from each strain to be tested was inoculated in a TSB broth and grown for 12 hours, at 37° C. shaking at 225 rpm. For the bacterial biofilm inhibition assays, 1 μL of saturated overnight cell culture was added to either 80 μL of TSB-G, or TSB-G supplemented with the amino acid compound solution to be tested, in a 384-well plate. The cells were allowed to adhere to the plate for 60 minutes at 37° C. without shaking. The media was carefully aspirated and 80 μL of TSB-G, or TSB-G supplemented with the amino acid compound solution was added to the plate. The plate was further incubated for 24 hours at 37° C. without shaking. Media was carefully aspirated and the biofilm was measured by optical density at 600 nm. Eight or twelve replicates were performed for each tested condition and the reported values are normalized to the control (TSB-G media only). For the bacterial biofilm disruption assays, 80 μL of TSB-G was added to the plate, along with 1 μL of overnight cell culture. The cells were allowed to adhere to the plate for 60 minutes at 37° C. with no shaking. The media was carefully aspirated and 80 μL of TSB-G was added to the plate. The plate was further incubated for 24 hours at 37° C. with no shaking. Media was carefully aspirated from the mature biofilm and 80 μL of TSB-G, or TSB-G supplemented with the amino acid to be tested, was gently added to the plate. The plate was further incubated for 24 hours at 37° C. without shaking. Media was aspirated and the biofilm was measured by optical density at 600 nm. Twelve replicates were performed for each tested condition and the reported values are normalized to the control (TSB-G media only).
For inhibition assay, 1 μl of overnight cell culture was added to either 80 μl of TSB-G, or TSB-G supplemented with the amino acid to be tested, in a 384-well plate. The cells were allowed to adhere to the plate for 60 minutes at 37° C. with no shaking. The media was carefully aspirated and 80 μl of TSB-G, or TSB-G supplemented with amino acid was added to the plate. The plate was further incubated for 24 hours at 37° C. with no shaking. Media was carefully aspirated and the biofilm was measured by optical density at 600 nm. […]

Test [2] relates to S. aureus (MRSA) biofilms. Kind of test: in vitro biofilm disruption assay, bacterial. The format is cell-based. The conditions noted are these: Staphylococcus aureus, 24 h. On the procedure: as §1, §2, §3, §4
For disruption assay, 80 μl of TSB-G was added to the plate, along with 1 μl of overnight cell culture. The cells were allowed to adhere to the plate for 60 minutes at 37° C. with no shaking. The media was carefully aspirated and 80 μl of TSB-G was added to the plate. The plate was further incubated for 24 hours at 37° C. with no shaking. Media was carefully aspirated from the mature biofilm and 80 μl of TSB-G, or TSB-G supplemented with the amino acid to be tested, was added drop wise to the plate. The plate was further incubated for 24 hours at 37° C. with no shaking. […]

Test [3] concerns bacterial biofilms (MRSA). Kind of test: biofilm assays (sustained inhibition and/or disruption), bacterial. In kind it is cell-based, Staphylococcus aureus. Particulars: for effect on bacterial biofilm growth / anti-biofilm properties against bacterial biofilms: in at least one of the two biofilm assays; for effect on MRSA biofilms in inhibition and disruption assays: Tables 4 and 5; for anti-biofilm properties against bacterial biofilms: administered individually at about 0.1 to about 5.0% weight to volume. The method, then:
as §2, §3, §4

The mark [4] stands for this setting: sustained inhibition, S. aureus, 1% amino acid, p<0.001.
[5] abbreviates: disruption, S. aureus, 1% amino acid, p<0.001, read-out: Reduce B Biofilm.
Where [6] appears, read: disruption, S. aureus, 1% amino acid, p<0.001, read-out: Promote B Biofilm.

Read-outs that look alike come from different tables or passages of the source.

As to `N=C(N)NCCC[C@H](N)C(=O)O` [Arginine, L-arginine], the activation at 1 % in test [1] and in test [2] (read-out: Promote B Biofilm) was 10 to 30% throughout. The “effect on bacterial biofilm growth” value in test [3] is “support (improve) bacterial biofilm growth”.

In the case of `NCCOP(=O)(O)O` [Phosphoethanolamine, O-phosphoethanolamine], the “Reduce B Biofilm” value in test [1] (setting [4]) is “● (a single dot [i.e. ●] signifies minor effect (from about 10 to about 30% change))”. The inhibition at 1 % in test [2] (setting [5]) was in the range of 10 to 30%. Further, in test [3], the “effect on MRSA biofilms in inhibition and disruption assays” value is “both inhibited and disrupted”; the “anti-biofilm properties against bacterial biofilms” value (shortened to “anti-biofilm properties”) is reported as “reduction by less than twofold”.

In the case of `N[C@@H](CO)C(=O)O` [Serine, L-serine], the activation at 1 % in test [1] (setting [4]) and in test [2] (setting [6]) was 10 to 30% throughout. Also, in test [3], the “effect on bacterial biofilm growth” value is “support (improve) bacterial biofilm growth”.

Take `CSCC[C@H](N)C(=O)O` [Methionine, L-methionine]: in test [1] (setting [4]), the activation at 1 % was 10 to 30%. Moreover, the “effect on bacterial biofilm growth” value in test [3] is listed as “support (improve) bacterial biofilm growth”.

For `CC(C)C[C@H](N)C(=O)O` [Leucine, L-leucine], the activation at 1 % in test [1] (setting [4]) and in test [2] (setting [6]) was 10 to 30% throughout. Besides, the “effect on bacterial biofilm growth” value in test [3] was “support (improve) bacterial biofilm growth”.

Regarding `CC[C@H](C)[C@H](N)C(=O)O` [Isoleucine, L-isoleucine], the activation at 1 % in test [2] (setting [6]) lay in the range of 10 to 30%. Further, the “effect on bacterial biofilm growth” value in test [3] is recorded as “support (improve) bacterial biofilm growth”.

Take `NCCC(=O)O` [Beta-Alanine, Beta-alanine]: the “Reduce B Biofilm” value in test [1] (setting [4]) is “● (a single dot [i.e. ●] signifies minor effect (from about 10 to about 30% change))”. Also, in test [3], the “anti-biofilm properties” value is given as “reduction by less than twofold”.

With `C[C@@H](O)[C@H](N)C(=O)O` [Threonine, L-threonine], in test [1] (setting [4]), the activation at 1 % fell in the range of 10 to 30%. In addition, the “effect on bacterial biofilm growth” value in test [3] is recorded as “support (improve) bacterial biofilm growth”.

Consider `NC(=O)C[C@H](N)C(=O)O` [Asparagine, L-asparagine], for which the activation at 1 % in test [1] (setting [4]) is 10 to 30%. Also, the “effect on bacterial biofilm growth” value in test [3] is on record as “support (improve) bacterial biofilm growth”.

Consider `NC(CCCC(=O)O)C(=O)O` (stereo not shown) [2 Aminoadipic Acid, 2-aminoadipic acid], for which, in test [1] (setting [4]), the “Reduce B Biofilm” value was “● (a single dot [i.e. ●] signifies minor effect (from about 10 to about 30% change))”. In test [2] (setting [5]), the inhibition at 1 % was in the range of 10 to 30%. Moreover, in test [3], the “effect on MRSA biofilms in inhibition and disruption assays” value was “both inhibited and disrupted”; the “anti-biofilm properties” value is given as “reduction by less than twofold”.

For the molecule `C[C@H](N)C(=O)O` [Alanine, L-alanine], the activation at 1 % in test [2] (setting [6]) lay within 10 to 30%. In addition, in test [3], the “effect on bacterial biofilm growth” value is listed as “support (improve) bacterial biofilm growth”.

Regarding `NCCS(=O)(=O)O` [Taurine, L-taurine], the activation at 1 % in test [1] (setting [4]) and in test [2] (setting [6]) was 10 to 30% in each case. In test [3], the “effect on bacterial biofilm growth” value was “support (improve) bacterial biofilm growth”.

As for `NCCCC[C@H](N)C(=O)O` [Lysine, L-lysine], the activation at 1 % in test [1] and in test [2] (read-out: Promote B Biofilm) was 10 to 30% in each case. Further, in test [3], the “effect on bacterial biofilm growth” value was “support (improve) bacterial biofilm growth”.

`NC(=O)NCCC[C@H](N)C(=O)O` [Citrulline, L-citrulline]: the activation at 1 % in test [1] and in test [2] (read-out: Promote B Biofilm) was 10 to 30% each time. The “effect on bacterial biofilm growth” value in test [3] was “support (improve) bacterial biofilm growth”.

`N[C@@H](Cc1ccccc1)C(=O)O` [Phenylalanine, L-phenylalanine]: the activation at 1 % in test [1] (setting [4]) and in test [2] (setting [6]) was 10 to 30% in each case. For the same molecule, the “effect on bacterial biofilm growth” value in test [3] is on record as “support (improve) bacterial biofilm growth”.

`NCCC[C@H](N)C(=O)O` [Ornithine, L-omithine]: the activation at 1 % in test [1] (setting [4]) and in test [2] (setting [6]) was 10 to 30% each time. The “effect on bacterial biofilm growth” value in test [3] was “support (improve) bacterial biofilm growth”.

As to `O=C(O)[C@@H]1C[C@@H](O)CN1` [Hydroxyproline, Trans-4-hydroxy-L-proline], the “Reduce B Biofilm” value in test [1] (setting [4]) is “● (a single dot [i.e. ●] signifies minor effect (from about 10 to about 30% change))”. Further, the inhibition at 1 % in test [2] (read-out: Reduce B Biofilm) lay in the range of 10 to 30%. Moreover, in test [3], the “effect on MRSA biofilms in inhibition and disruption assays” value was “both inhibited and disrupted”; the “anti-biofilm properties” value is “reduction by less than twofold”.

On to `N[C@@H](CCSC[C@H](N)C(=O)O)C(=O)O` [Cystathionine, L-cystathionine], for which the inhibition at 0.2 % in test [2] (disruption, S. aureus, 0.2% amino acid, p<0.001, read-out: Reduce B Biofilm) is 10 to 30%.

Consider `NCC(=O)O` [Glycine, L-glycine], for which the activation at 1 % in test [1] (setting [4]) and in test [2] (setting [6]) was 10 to 30% throughout. Also, in test [3], the “effect on bacterial biofilm growth” value was “support (improve) bacterial biofilm growth”.
